Laboratory results as given in patent publication US20070128217A1 (priority 2003, published 2007).

Assays:
[1] = tested on: recombinant human anti-SARS-CoV antibody 03-018; format: binding; set-up: Binding of antibody 03-018 to linear peptides of the N protein of SARS-CoV Urbani / Binding of antibody 03-018 to looped/cyclic peptides of the N protein of SARS-CoV Urbani: unit not given here
[2] = tested on: rabbit serum obtained by immunizing a rabbit with the SARS-CoV strain Frankfurt 1; format: binding; set-up: Binding of a rabbit serum to linear peptides / Binding of a rabbit serum to looped peptides / Rabbit serum linear peptides / Rabbit serum looped peptides / Binding of a rabbit serum to linear peptides of protein N of SARS-CoV Urbani (Rabbit serum linear peptides) / Binding of a rabbit serum to looped/cyclic peptides of protein N of SARS-CoV Urbani (Rabbit serum looped peptides): unit not given here
[3] = tested on: antibodies in sera from SARS patients (sera 1a, 1b, 2, 6, 37, 62, London, SARS-yellow, SARS-green); format: binding, human; set-up: Binding of serum 6 to linear peptides of protein X1 of SARS-CoV Urbani / Binding of serum 37 to linear peptides of protein X1 of SARS-CoV Urbani / Binding of serum 6 to looped/cyclic peptide (PEPSCAN-ELISA) / Binding of serum 37 to looped/cyclic peptide (PEPSCAN-ELISA) / Binding of serum 37 to looped/cyclic peptides of protein X1 of SARS-CoV Urbani / Binding of serum 6 to linear peptides of protein X2 / Binding of serum 37 to linear peptides of protein X2 / Binding of serum 37 to looped/cyclic peptides of protein X2 of SARS-CoV Urbani / Binding of serum 6 to linear peptides of protein M of SARS-CoV Urbani / Binding of serum 37 to linear peptides of protein M of SARS-CoV Urbani / Binding of serum 6 to looped/cyclic peptides of protein M of SARS-CoV Urbani / Binding of serum 37 to looped/cyclic peptides of protein M of SARS-CoV Urbani / Binding of serum 6 to linear peptides of protein X3 of SARS-CoV Urbani / Binding of serum 37 to linear peptides of protein X3 of SARS-CoV Urbani / Binding of serum 37 to looped/cyclic peptides of protein X3 of SARS-CoV Urbani / Binding of serum 6 to linear peptides of protein X4 of SARS-CoV Urbani / Binding of serum 37 to linear peptides of protein X4 of SARS-CoV Urbani / Binding of serum 37 to looped/cyclic peptides of protein X4 of SARS-CoV Urbani / Binding of serum 6 to linear peptides of protein X5 of SARS-CoV Urbani / Binding of serum 37 to linear peptides of protein X5 of SARS-CoV Urbani / Binding of serum 37 to looped/cyclic peptides of protein X5 of SARS-CoV Urbani / Binding of serum 6 to linear peptides of protein N of SARS-CoV Urbani / Binding of serum 37 to linear peptides of protein N of SARS-CoV Urbani / Binding of serum 6 to linear peptide (PEPSCAN-ELISA) / Binding of serum 1a to looped/cyclic peptides of protein N of SARS-CoV Urbani / Binding of serum 1b to looped/cyclic peptides of protein N of SARS-CoV Urbani / Binding of serum 2 to looped/cyclic peptides of protein N of SARS-CoV Urbani / Binding of serum 6 to looped/cyclic peptides of protein N of SARS-CoV Urbani / Binding of serum 37 to looped/cyclic peptides of protein N of SARS-CoV Urbani / Binding of serum 62 to looped/cyclic peptides of protein N of SARS-CoV Urbani / Binding of serum London to looped/cyclic peptides of protein N of SARS-CoV Urbani / Binding of serum SARS-green to looped/cyclic peptides of protein N of SARS-CoV Urbani: unit not given here
[4] = tested on: control sera (pooled serum of ten healthy LUMC hospital workers; commercial negative donor pooled serum from the Dutch bloodbank); format: binding, human; set-up: Binding of Control serum LUMC to linear peptides / Binding of Control serum Blood-bank to linear peptides / Binding of Control serum LUMC to looped peptides / Binding of Control Serum Blood-Bank to Looped peptides / Binding of Control serum LUMC to linear peptides of the protein M of SARS-CoV Urbani / Binding of Control serum Blood-bank to linear peptides of the protein M of SARS-CoV Urbani / Binding of Control serum LUMC to looped peptides of the protein M of SARS-CoV Urbani / Binding of Control Serum Blood-Bank to Looped peptides of the protein M of SARS-CoV Urbani: unit not given here

Sequence	Binding of antibody 03-018 to linear peptides of the N protein of SARS-CoV Urbani [1]	Binding of antibody 03-018 to looped/cyclic peptides of the N protein of SARS-CoV Urbani [1]	Binding of a rabbit serum to linear peptides of protein N of SARS-CoV Urbani (Rabbit serum linear peptides) [2]	Binding of a rabbit serum to looped/cyclic peptides of protein N of SARS-CoV Urbani (Rabbit serum looped peptides) [2]	Binding of serum 1a to looped/cyclic peptides of protein N of SARS-CoV Urbani [3]	Binding of serum 1b to looped/cyclic peptides of protein N of SARS-CoV Urbani [3]	Binding of serum 2 to looped/cyclic peptides of protein N of SARS-CoV Urbani [3]	Binding of serum 6 to looped/cyclic peptides of protein N of SARS-CoV Urbani [3]	Binding of serum 37 to looped/cyclic peptides of protein N of SARS-CoV Urbani [3]	Binding of serum 62 to looped/cyclic peptides of protein N of SARS-CoV Urbani [3]	Binding of serum London to looped/cyclic peptides of protein N of SARS-CoV Urbani [3]	Binding of serum SARS-green to looped/cyclic peptides of protein N of SARS-CoV Urbani [3]	Binding of serum SARS-yellow to looped/cyclic peptides of protein N of SARS-CoV Urbani [3]	Binding of Control Serum Blood-Bank to Looped peptides [4]	Binding of Control serum Blood-bank to linear peptides [4]	Binding of Control serum LUMC to linear peptides [4]	Binding of Control serum LUMC to looped peptides [4]	Binding of serum 1a to linear peptides of protein N of SARS-CoV Urbani [3]	Binding of serum 1b to linear peptides of protein N of SARS-CoV Urbani [3]	Binding of serum 2 to linear peptides of protein N of SARS-CoV Urbani [3]	further results
QASSRSSSRSRGNSR	0.1	0.2	0.3	1.1	0.3	0.2	0.4	0.3	0.5	0.4	0.4	0.1	0.4	0.5	0.7	0.7	0.5				Binding of serum 1a to linear peptide (PEPSCAN-ELISA) [3]: 0.2; Binding of serum 1b to linear peptide (PEPSCAN-ELISA) [3]: 0.1; Binding of serum 2 to linear peptide (PEPSCAN-ELISA) [3]: 0.3; Binding of serum 6 to linear peptide (PEPSCAN-ELISA) [3]: 0.3; Binding of serum 37 to linear peptide (PEPSCAN-ELISA) [3]: 0.6; Binding of serum 62 to linear peptide (PEPSCAN-ELISA) [3]: 0.6; Binding of serum London to linear peptide (PEPSCAN-ELISA) [3]: 0.5; Binding of serum SARS-green to linear peptide (PEPSCAN-ELISA) [3]: 0.2; Binding of serum SARS-yellow to linear peptide (PEPSCAN-ELISA) [3]: 0.6
QDLIRQGTDYKHWPQ	0.1	0.2	0.1	0.2	0.3	0.2	0.3	0.2	0.5	0.4	0.4	0.2	0.3	0.6	0.7	0.6	0.5	0.2	0.1	0.2	Binding of serum 6 to linear peptides of protein N of SARS-CoV Urbani [3]: 0.2; Binding of serum 37 to linear peptides of protein N of SARS-CoV Urbani [3]: 0.6; Binding of serum 62 to linear peptides of protein N of SARS-CoV Urbani [3]: 0.5; Binding of serum London to linear peptides of protein N of SARS-CoV Urbani [3]: 0.4; Binding of serum SARS-green to linear peptides of protein N of SARS-CoV Urbani [3]: 0.2; Binding of serum SARS-yellow to linear peptides of protein N of SARS-CoV Urbani [3]: 0.4
QFAPSASAFFGMSRI	0.1	0.3	0.1	0.4	0.4	0.2	0.4	0.2	0.6	0.7	0.4	0.5	0.3					0.2	0.1	0.1	Binding of serum 6 to linear peptides of protein N of SARS-CoV Urbani [3]: 0.1; Binding of serum 37 to linear peptides of protein N of SARS-CoV Urbani [3]: 0.4; Binding of serum 62 to linear peptides of protein N of SARS-CoV Urbani [3]: 0.4; Binding of serum London to linear peptides of protein N of SARS-CoV Urbani [3]: 0.4; Binding of serum SARS-green to linear peptides of protein N of SARS-CoV Urbani [3]: 0.1; Binding of serum SARS-yellow to linear peptides of protein N of SARS-CoV Urbani [3]: 0.5; Control Serum Blood-Bank Looped peptides [4]: 0.6; Control serum Blood-bank linear peptides [4]: 0.7; Control serum LUMC linear peptides [4]: 0.5; Control serum LUMC looped peptides [4]: 0.6
